Patent US20050164210A1, “Regulated polymerase III expression systems and related methods” (priority 2004, published 2005)

System: VgEcR and RXR
Experiment: murA induction of the E/GRE/Hsmin promoter: GFP+ cells by fluorescent microscopy and FACS, Western blot of GAL4-Oct-2Q(Q→A) and EGFP
Assay type: cell-based
Conditions: 72 h
Protocol: High titer virus were produced by calcium phosphate transfection of retroviral DNA constructs into the LinX amphotrophic retroviral packaging cell line (17) followed by incubation with dexamethasone/butyrate (1 μM/ml) of packagers at 32° C. for 3 days. Infections were carried out by harvesting supernatants from LinX packagers, filtered through a […] membrane (Millipore), followed by the addition of polybrene (8 μM) to supernatants, finally overlaying onto actively dividing host cells (70% confluent). Cells were gently spun at room temperature for 30 min, incubated at 32° C. for 6 h. […]
Western blot analysis and antibodies. […] Signal intensities were determined after background corrections by using Alpha-Imager 2000 Documentation and Analysis Software (Alpha Innotech, San Leandro, Calif.). The percentage reduction in band intensity for each concentration of murA was calculated relative to the uninduced samples and normalized against β-tubulin.
The ecdysone inducible system is comprised of three Moloney murine leukemia virus (MoMLV)-based retroviral vectors, the two vectors expressing nuclear receptors/transcription factors VgEcR and RXR, and a third construct, pEind-RNAi expressing a chimeric transactivator GAL4-Oct-2^Q(Q→A), and an internal ribosomal entry site (IRES) linked enhanced green fluorescence protein (EGFP) under an inducible promoter E/GRE/Hsmin (FIG. 1A). […]

For CC(C)CC[C@@H](O)[C@](C)(O)[C@H]1CC[C@@]2(O)C3=CC(=O)[C@]4(O)C[C@@H](O)[C@@H](O)C[C@]4(C)[C@H]3[C@H](O)C[C@]12C [murA, muristerone A], the “Levels of GAL4-Oct-2Q(Q→A) and EGFP protein (Western blot)” value (5 μM murA, versus untreated controls) was “increased levels” and the “GFP+ cells following induction with murA” value (sorted stable cells, 0.5 μM murA (microscopy), 5 μM murA (FACS)) was greater than 95%.
